{
  "source": "patent US20110214194A1",
  "about": "(priority 2005, published 2011)",
  "key": {"peritoneal macrophages [1]": {"tested_on": "peritoneal macrophages", "assay_type": "cell-based, mouse"}, "type I IFN": {"tested_on": "type I IFN", "assay_type": "cell-based, mouse", "settings": "Heedless macrophages, 100 ng/ml, 4 hours"}, "IRF-3": {"tested_on": "IRF-3", "experiment": "Immunoblot analysis of IRF-3 activation in macrophages", "assay_type": "cell-based, mouse", "settings": "heedless mutant cells, lipid A 100 ng/ml"}, "NF-κB, ERK1 and ERK2": {"tested_on": "NF-κB, ERK1 and ERK2", "experiment": "Immunoblot analysis of IκB and ERK (p42/44) phosphorylation in macrophages", "assay_type": "cell-based, mouse", "settings": "Heedless macrophages, lipid A 100 ng/ml"}, "peritoneal macrophages [2]": {"tested_on": "peritoneal macrophages", "settings": "Trif mutant macrophages; cited from earlier work"}},
  "data": [
    {"substance": "MALP-2", "values": [
      {"measurement": "TNF production in response to the inducer: effect of the Heedless mutation", "setting": "peritoneal macrophages [1]", "result": "partial impairment of the response"}
    ]},
    {"substance": "Pam2CSK4", "values": [
      {"measurement": "TNF production in response to the inducer: effect of the Heedless mutation", "setting": "peritoneal macrophages [1]", "result": "partial impairment of the response"}
    ]},
    {"substance": "Pam3CSK4", "values": [
      {"measurement": "TNF production in response to the inducer: effect of the Heedless mutation", "setting": "peritoneal macrophages [1]", "result": "normal"}
    ]},
    {"substance": "lipid A", "values": [
      {"measurement": "signaling via the MyD88-independent pathway (type I IFN production): effect of the Heedless mutation", "setting": "type I IFN", "result": "prevented"},
      {"measurement": "formation of the IRF-3 phosphodimer", "setting": "IRF-3", "result": "not detected"},
      {"measurement": "activation of NF-κB and phosphorylation of ERK1 and ERK2", "setting": "NF-κB, ERK1 and ERK2", "result": "occurred normally"},
      {"measurement": "lipid A-induced TNF production", "setting": "peritoneal macrophages [2]", "result": "rather severe impairment"}
    ]},
    {"substance": "lipoteichoic acid", "values": [
      {"measurement": "TNF production in response to the inducer: effect of the Heedless mutation", "setting": "peritoneal macrophages [1]", "result": "partial impairment of the response"}
    ]},
    {"substance": "poly IC", "values": [
      {"measurement": "TNF production in response to the inducer: effect of the Heedless mutation", "setting": "peritoneal macrophages [1]", "result": "normal"}
    ]}
  ]
}
